Values after ≈ are worked out from the molar mass of the structure shown.
What was measured:
[1] = test system: rhinovirus B14; assay: Inhibitory concentration required against Human rhinovirus-14 (HRV-14) using plaque reduction assay; assay type: functional, organism-based, Enterovirus; details: Rhinovirus B
[2] = Cellular toxic concentration against Human rhinovirus-14 (HRV-14) using cytopathic effect assay(CPE/XTT); assay type: organism-based, Enterovirus; details: read-out: TC50 (the source's name)

| Compound | IC50 [1] [µg/mL] | CC50 [2] [µg/mL] |
| --- | --- | --- |
| CNC(=O)/C=C(\c1ccccc1)c1ccc2nc(N)c(C(=O)c3ccc(F)cc3)n2c1 | 0.37 (≈ 0.893 µM) | 3.97 (≈ 9.58 µM) |
| CNC(=O)/C=C(\c1ccccc1)c1ccc2nc(N)c(C(=O)C(C)(C)C)n2c1 | 0.17 (≈ 0.452 µM) | > 10 |
| CC(C)S(=O)(=O)n1c(N)nc2ccc(/C(=N/O)c3ccccc3)cc21 [ENVIROXIME] | 0.045 (≈ 0.126 µM) |  |
| CNC(=O)/C=C(\c1ccccc1)c1ccc2nc(N)c(C(C)=O)n2c1 | 2.48 (≈ 7.42 µM) | 22.8 (≈ 68.2 µM) |
| CNC(=O)/C=C(\c1ccccc1)c1ccc2nc(N)c(C(=O)c3ccccc3)n2c1 | 0.24 (≈ 0.605 µM) | 2.95 (≈ 7.44 µM) |

Reference: ChEMBL document CHEMBL1131712, “Short synthesis and anti-rhinoviral activity of imidazo[1,2-a]pyridines: the effect of acyl groups at 3-position” (Bioorg Med Chem Lett, 1999)
